# From US7947305B2, “Fat-soluble drug composition” (Riken Vitamin Co., Ltd., priority 2005, dated 2011)
# Test: HLB value of emulsifiers
# Assay type: physicochemical
# Details: emulsifier raw material
# Experimental: The HLB value (Hydrophile Lipophile Balance) refers to a value showing hydrophilicity of a surfactant. This is an index representing the balance of the lipophilicity and hydrophilicity of the object compound, which is determined as a relative value to an HLB value for a hypothetical compound, generally an ethylene oxide adduct-type nonionic surfactant having an infinite long hydrophilic group attached to a lipophilic group and having the maximum hydrophilicity, which is set to 20, and to an HLB value for a lipophilic compound having no hydrophilic group, which is set to 0.
row,Compound,HLB
1,decaglycerol laurate [Decaglycerol monolaurate],15.0
2,diglycerol monooleate,7.4
3,"CCCCCCCC/C=C\CCCCCCCC(=O)OCC(O)CO (stereo not drawn) [Glycerol oleate, glycerol monooleate]",4.3
